Reference: patent publication US20250206777A1, “COMPOUND - DIAGNOSTIC MARKER FOR INTESTINAL CANCER, METHOD FOR DETECTING ENZYMATIC ACTIVITY, METHOD FOR DIAGNOSIS OF INTESTINAL CANCER, KIT COMPRISING THE COMPOUND, USES OF THE COMPOUND AND METHOD FOR THE TREATMENT OF INTESTINAL CANCER” (URTESTE S.A., priority 2022, published 2025)
Where “and” joins values, the source holds several entries; their conditions need not be identical. Identical values can stand only once. *1 amine or outer side, *2 acyl side, *3 side chain or, on linkers, in order; H or OH if unused. Where no end group is shown, it is not given here. [ ]: non-standard residue; d: D form. Benzoyl(5-NH,2-NO2) = O=C(c1cc(N[*:1])ccc1[N+](=O)[O-])[*:2]; 2Abz = Nc1ccccc1C(=O)O

Columns and labels:
[1] = test system: proteolytic enzymes in urine from a subject suffering from intestinal cancer; experiment: Hydrolysis of the chromogenic substrate in urine from subjects with intestinal cancer (absorbance at 405 nm); format: biochemical, human; conditions: for absorbance: 405 nm, 60 minutes, 37° C., pH 8.0, triplicate
Experimental: The activity of the novel compounds according to the invention was studied in a group of 20 subjects diagnosed with intestinal cancer using the representative compound according to the invention. […] The remaining compounds according to the invention are characterized by the analogous mechanism of action. For this purpose, the representative compound according to the invention, ABZ^1-Asn^2-Phe^3-Ser^4-Pro^5-ANB^6—NH2, was dissolved in dimethyl sulfoxide (at a concentration of 0.5 mg/mL) and then 50 μL of the solution was mixed with 120 μL of a buffer (200 mM Tris-HCl, pH 8.0) and 80 μL of urine from a subject suffering from intestinal cancer. The measurement was performed on a 96-well plate designed for measuring absorbance and each sample was analysed in triplicate at the temperature of 37° C. The duration of the measurement was 60 minutes. During the measurement, the wavelength characteristic for the chromophore (ANB-NH2) being released was monitored at the wavelength 405 nm (range 380-430 nm).

[2] = test system: urine samples taken from healthy persons; experiment: Hydrolysis of the chromogenic substrate in urine from healthy subjects (absorbance at 405 nm); format: biochemical, human; conditions: for absorbance: healthy subject, 405 nm, 60 minutes, 37° C., pH 8.0, triplicate
[3] = test system: urine taken from a person diagnosed with intestinal cancer; experiment: RP HPLC analysis of substrate cleavage in urine from a person with intestinal cancer; format: biochemical, human; conditions: randomly selected urine sample from a person diagnosed with intestinal cancer
[4] = test system: at least one enzyme of the studied material; experiment: Dependence of substrate hydrolysis on reaction pH; format: biochemical; conditions: FIG. 4
Experimental: Furthermore, measurements concerning the dependence of the proteolytic activity of the representative compound according to the invention on the reaction pH were performed.

## ABZ-Asn-Phe-Ser-Pro-ANB-NH2 ([2Abz]NFSP-{Benzoyl(5-NH,2-NO2)-NH2}) [chromogenic/fluorogenic peptide substrate; ABZ is 2-aminobenzoic acid, ANB-NH2 is amide of 5-amino-2-nitrobenzoic acid]
[1]; all samples 1-20 from persons suffering from intestinal cancer
  cleavage of the substrate: underwent cleavage
[1]; urine sample 3, intestinal cancer
  absorbance: 0.035 and 0.034 and 0.036
[1]; urine sample 4, intestinal cancer
  absorbance: 0.0314 and 0.0313 and 0.0385
[1]; urine sample 7, intestinal cancer
  absorbance: 0.041 and 0.039 and 0.04
[1]; urine sample 8, intestinal cancer
  absorbance: 0.0257 and 0.0219 and 0.0258
[1]; urine sample 9, intestinal cancer
  absorbance: 0.056 and 0.064 and 0.06
[1]; urine sample 10, intestinal cancer
  absorbance: 0.025 and 0.024 and 0.026
[1]; urine sample 11, intestinal cancer
  absorbance: 0.015 and 0.016 and 0.027
[1]; urine sample 12, intestinal cancer
  absorbance: 0.0916 and 0.0979 and 0.101
[1]; urine sample 13, intestinal cancer
  absorbance: 0.046 and 0.0337 and 0.0461
[1]; urine sample 14, intestinal cancer
  absorbance: 0.025 and 0.018 and 0.0182
[1]; urine sample 15, intestinal cancer
  absorbance: 0.031 and 0.028 and 0.02
[1]; urine sample 16, intestinal cancer
  absorbance: 0.0183 and 0.0293 and 0.0246
[1]; urine sample 17, intestinal cancer
  absorbance: 0.073 and 0.07 and 0.046
[1]; urine sample 18, intestinal cancer
  absorbance: 0.016 and 0.0186 and 0.0202
[1]; urine sample 19, intestinal cancer
  absorbance: 0.036 and 0.04 and 0.038
[2]; urine sample 1Z
  absorbance: 0.00000
[2]; urine sample 2Z
  absorbance: 0.00000
[2]; urine sample 3Z
  absorbance: 0.00000
[2]; urine sample 4Z
  absorbance: 0.00000
[2]; urine sample 5Z
  absorbance: 0.00000
[2]; urine sample 6Z
  absorbance: 0.00000
[2]; urine sample 7Z
  absorbance: 0.00000
[2]; urine sample 8Z
  absorbance: 0.00000
[2]; urine sample 9Z
  absorbance: 0.00000
[2]; urine sample 10Z
  absorbance: 0.00000
[2]; urine sample 11Z
  absorbance: 0.00000
[2]; urine sample 12Z
  absorbance: 0.00000
[2]; urine sample 13Z
  absorbance: 0.00000
[2]; urine sample 14Z
  absorbance: 0.00000
[2]; urine sample 15Z
  absorbance: 0.00000
[2]; urine sample 16Z
  absorbance: 0.00000
[2]; urine sample 17Z
  absorbance: 0.00000
[2]; urine sample 18Z
  absorbance: 0.00000
[2]; urine sample 19Z
  absorbance: 0.00000
[2]; urine sample 20Z
  absorbance: 0.00000
[2]; urine samples from healthy persons 1Z to 20Z
  increase in absorbance / hydrolysis of the tested compound: does not lead to an increase in absorbance
[3]
  cleavage products by RP HPLC: cleaves into the peptide fragment ABZ-Asn-Phe-Ser-Pro-OH and the chromophore group of the compound (ANB-NH2)
[4]
  dependence of the proteolytic activity on the reaction pH: maximum activity at alkaline pH
